Experimental findings from US10800791B2, “Triazole ACC inhibitors and uses thereof” (Gilead Apollo, LLC, priority 2015, dated 2020) are described below.

Values after ≈ are worked out from the molar mass of the structure shown. Like-named read-outs stand apart in the source and are kept apart here.

The subject of assay [1] is C. parapsilosis. Briefly: Antifungal Activity Assay (broth microtiter MIC), C. parapsilosis. The class given is cell-based, Candida parapsilosis. To be noted: Lodderomyces parapsilosis, ATCC22019, 48 h, ATCC 22019, 3 replicates, MIC recorded at 48 h, read-out: MIC, C. parapsilosis ATCC 22019. As to the method: (§1) Compounds of the present invention were evaluated in an Antifungal Activity Assay. An exemplary procedure for the assay, which measures the susceptibility of various Candida species to antifungal compounds, follows. Compounds to be tested (including fluconazole and amphotericin B) were dissolved in DMSO to obtain a solution having a concentration of 1 mg/mL. These stock solutions were sterile filtered using a 0.22 um nylon syringe filter, then diluted in sterile water to achieve a final concentration of 128 μg/mL.
(§2) All species were grown from frozen stock by directly plating on to freshly prepared Sabouraud Dextrose agar (BD, Difco) and incubated overnight in ambient air at 35° C. for 24 h. A direct suspension was prepared in RPMI 1640+MOPS (Lonza, Biowhittaker) by taking individual colonies from the overnight cultures using sterile swabs soaked in sterile saline. The concentration of the suspension was determined using pre-determined standard curves. These suspensions were then diluted down to 5×10^3 CFU/mL to achieve a final concentration of 2.5×10^3 CFU/mL once added to the microtiter plate as per CLSI guidelines (M27-A3, Vol. 28 No. 14).
(§3) Broth microtiter MIC challenge plates were prepared following CLSI guidelines (M27-A3, Vol. 28 No. 14). The original CLSI guidelines focused on reading Candida MICs after 48 h of incubation. As reading after only 24 h offers a clear advantage of patient care, QC limits are being established for all drugs at 24 h. That being said there are no known interpretive breakpoints for amphotericin B at 24 h and the current fluconazole interpretive breakpoints are based on a 48 h reading. The MICs for the test compounds were recorded at 48 h. All MIC determinations were achieved by visually comparing the growth found in the antibiotic challenged wells to that of the growth control.

In assay [2] the target is fungal (fACC2) (UniProt Q00955). To be noted: read-out: fACC2 (in vitro ACC2 Inhibition Assay, IC50), ADP-Glo, 5 nM ACC2, 20 μM ATP, 20 μM acetyl-CoA. (ADP-Glo first removes unused ATP, then detects ADP through luciferase.)
Assay [3] relates to C. krusei. Nature of the assay: Antifungal Activity Assay (broth microtiter MIC), C. krusei. The class given is cell-based, Candida krusei. Particulars: Pichia kudriavzevii, ATCC6258, 48 h, ATCC 6258, 3 replicates, MIC recorded at 48 h, read-out: MIC, C. krusei ATCC 6258. The protocol:
as §1, §2, §3

The subject of assay [4] is C. albicans. Nature of the assay: Antifungal Activity Assay (broth microtiter MIC), C. albicans. The format is cell-based, Candida albicans. Particulars: Candida albicans, ATCC90028, 48 h, ATCC 90028, 3 replicates, MIC recorded at 48 h, read-out: MIC, C. albicans ATCC 90028. As to the method: as §1, §2, §3
The target in assay [5] is human (hACC2) (Homo sapiens, UniProt O00763). Nature of the assay: In vitro ACC inhibition assay (ADP-Glo), hACC2. The class given is biochemical. Particulars: 5 nM ACC2, 20 μM ATP, 20 μM acetyl-CoA. The protocol: The detailed procedure is as follows. […] 10 μL ADP glo reagent was added. […] 20 μL kinase detection reagent was added.
human (hACC2), sequence (O00763 whole entry): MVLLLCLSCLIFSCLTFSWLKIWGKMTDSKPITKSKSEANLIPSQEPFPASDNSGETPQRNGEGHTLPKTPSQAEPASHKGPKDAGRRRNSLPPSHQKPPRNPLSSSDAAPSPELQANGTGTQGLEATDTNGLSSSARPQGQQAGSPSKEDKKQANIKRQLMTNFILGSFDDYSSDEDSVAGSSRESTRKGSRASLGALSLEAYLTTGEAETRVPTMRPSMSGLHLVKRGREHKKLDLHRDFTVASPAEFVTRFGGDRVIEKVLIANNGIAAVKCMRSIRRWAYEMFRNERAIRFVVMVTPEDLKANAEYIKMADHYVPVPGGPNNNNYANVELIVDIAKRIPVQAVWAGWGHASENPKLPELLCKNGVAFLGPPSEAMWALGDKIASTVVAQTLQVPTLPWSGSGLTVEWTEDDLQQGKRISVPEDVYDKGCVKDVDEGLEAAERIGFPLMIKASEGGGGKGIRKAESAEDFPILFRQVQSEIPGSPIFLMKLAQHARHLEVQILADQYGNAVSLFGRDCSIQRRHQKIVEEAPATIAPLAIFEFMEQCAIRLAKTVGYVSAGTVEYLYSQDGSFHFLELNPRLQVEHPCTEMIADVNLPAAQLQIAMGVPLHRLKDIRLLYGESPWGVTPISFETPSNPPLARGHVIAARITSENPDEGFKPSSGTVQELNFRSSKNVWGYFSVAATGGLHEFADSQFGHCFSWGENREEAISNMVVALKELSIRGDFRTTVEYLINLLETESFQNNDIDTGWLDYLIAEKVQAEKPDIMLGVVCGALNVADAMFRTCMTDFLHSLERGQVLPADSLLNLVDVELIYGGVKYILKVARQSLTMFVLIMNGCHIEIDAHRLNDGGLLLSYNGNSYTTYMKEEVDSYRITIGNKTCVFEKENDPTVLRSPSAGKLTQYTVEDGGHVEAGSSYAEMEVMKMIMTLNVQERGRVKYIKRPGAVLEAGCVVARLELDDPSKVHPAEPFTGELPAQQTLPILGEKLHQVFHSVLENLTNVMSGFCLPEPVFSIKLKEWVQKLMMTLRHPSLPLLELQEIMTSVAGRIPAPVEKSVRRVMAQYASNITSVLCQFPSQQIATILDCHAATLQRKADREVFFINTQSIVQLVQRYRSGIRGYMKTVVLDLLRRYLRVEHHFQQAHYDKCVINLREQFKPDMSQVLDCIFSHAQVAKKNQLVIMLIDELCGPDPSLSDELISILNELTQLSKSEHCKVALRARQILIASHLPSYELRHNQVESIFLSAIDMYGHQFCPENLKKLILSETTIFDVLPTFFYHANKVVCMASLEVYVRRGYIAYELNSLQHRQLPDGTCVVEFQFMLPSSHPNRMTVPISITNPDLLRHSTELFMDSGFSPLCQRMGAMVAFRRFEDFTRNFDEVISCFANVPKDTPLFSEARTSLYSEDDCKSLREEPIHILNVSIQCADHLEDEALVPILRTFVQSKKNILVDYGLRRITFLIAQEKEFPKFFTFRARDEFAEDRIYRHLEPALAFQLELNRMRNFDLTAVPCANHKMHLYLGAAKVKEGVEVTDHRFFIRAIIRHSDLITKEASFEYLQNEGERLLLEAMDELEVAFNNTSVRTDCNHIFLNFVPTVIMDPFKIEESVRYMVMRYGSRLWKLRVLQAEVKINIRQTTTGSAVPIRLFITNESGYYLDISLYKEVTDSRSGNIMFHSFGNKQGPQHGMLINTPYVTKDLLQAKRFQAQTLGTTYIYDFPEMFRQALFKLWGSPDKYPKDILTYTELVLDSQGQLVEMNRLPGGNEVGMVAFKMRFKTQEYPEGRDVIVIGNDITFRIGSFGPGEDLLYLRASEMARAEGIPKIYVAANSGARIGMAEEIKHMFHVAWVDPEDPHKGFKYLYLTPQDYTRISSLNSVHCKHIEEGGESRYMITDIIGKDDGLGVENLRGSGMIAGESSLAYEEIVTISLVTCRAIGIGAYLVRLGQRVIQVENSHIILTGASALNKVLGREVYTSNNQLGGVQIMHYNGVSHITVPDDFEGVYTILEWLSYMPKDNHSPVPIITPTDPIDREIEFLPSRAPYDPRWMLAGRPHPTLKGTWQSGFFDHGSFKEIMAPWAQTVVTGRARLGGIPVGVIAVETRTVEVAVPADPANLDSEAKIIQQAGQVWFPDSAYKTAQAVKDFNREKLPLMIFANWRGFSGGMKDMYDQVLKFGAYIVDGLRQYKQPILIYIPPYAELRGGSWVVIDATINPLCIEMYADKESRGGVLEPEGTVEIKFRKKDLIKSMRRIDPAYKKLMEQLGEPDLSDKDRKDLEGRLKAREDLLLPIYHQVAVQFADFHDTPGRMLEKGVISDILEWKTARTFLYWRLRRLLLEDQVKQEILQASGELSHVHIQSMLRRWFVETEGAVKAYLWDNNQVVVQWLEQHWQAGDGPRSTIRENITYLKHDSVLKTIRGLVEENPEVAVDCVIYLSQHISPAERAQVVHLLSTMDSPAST

fungal (fACC2), sequence (Q00955 whole entry): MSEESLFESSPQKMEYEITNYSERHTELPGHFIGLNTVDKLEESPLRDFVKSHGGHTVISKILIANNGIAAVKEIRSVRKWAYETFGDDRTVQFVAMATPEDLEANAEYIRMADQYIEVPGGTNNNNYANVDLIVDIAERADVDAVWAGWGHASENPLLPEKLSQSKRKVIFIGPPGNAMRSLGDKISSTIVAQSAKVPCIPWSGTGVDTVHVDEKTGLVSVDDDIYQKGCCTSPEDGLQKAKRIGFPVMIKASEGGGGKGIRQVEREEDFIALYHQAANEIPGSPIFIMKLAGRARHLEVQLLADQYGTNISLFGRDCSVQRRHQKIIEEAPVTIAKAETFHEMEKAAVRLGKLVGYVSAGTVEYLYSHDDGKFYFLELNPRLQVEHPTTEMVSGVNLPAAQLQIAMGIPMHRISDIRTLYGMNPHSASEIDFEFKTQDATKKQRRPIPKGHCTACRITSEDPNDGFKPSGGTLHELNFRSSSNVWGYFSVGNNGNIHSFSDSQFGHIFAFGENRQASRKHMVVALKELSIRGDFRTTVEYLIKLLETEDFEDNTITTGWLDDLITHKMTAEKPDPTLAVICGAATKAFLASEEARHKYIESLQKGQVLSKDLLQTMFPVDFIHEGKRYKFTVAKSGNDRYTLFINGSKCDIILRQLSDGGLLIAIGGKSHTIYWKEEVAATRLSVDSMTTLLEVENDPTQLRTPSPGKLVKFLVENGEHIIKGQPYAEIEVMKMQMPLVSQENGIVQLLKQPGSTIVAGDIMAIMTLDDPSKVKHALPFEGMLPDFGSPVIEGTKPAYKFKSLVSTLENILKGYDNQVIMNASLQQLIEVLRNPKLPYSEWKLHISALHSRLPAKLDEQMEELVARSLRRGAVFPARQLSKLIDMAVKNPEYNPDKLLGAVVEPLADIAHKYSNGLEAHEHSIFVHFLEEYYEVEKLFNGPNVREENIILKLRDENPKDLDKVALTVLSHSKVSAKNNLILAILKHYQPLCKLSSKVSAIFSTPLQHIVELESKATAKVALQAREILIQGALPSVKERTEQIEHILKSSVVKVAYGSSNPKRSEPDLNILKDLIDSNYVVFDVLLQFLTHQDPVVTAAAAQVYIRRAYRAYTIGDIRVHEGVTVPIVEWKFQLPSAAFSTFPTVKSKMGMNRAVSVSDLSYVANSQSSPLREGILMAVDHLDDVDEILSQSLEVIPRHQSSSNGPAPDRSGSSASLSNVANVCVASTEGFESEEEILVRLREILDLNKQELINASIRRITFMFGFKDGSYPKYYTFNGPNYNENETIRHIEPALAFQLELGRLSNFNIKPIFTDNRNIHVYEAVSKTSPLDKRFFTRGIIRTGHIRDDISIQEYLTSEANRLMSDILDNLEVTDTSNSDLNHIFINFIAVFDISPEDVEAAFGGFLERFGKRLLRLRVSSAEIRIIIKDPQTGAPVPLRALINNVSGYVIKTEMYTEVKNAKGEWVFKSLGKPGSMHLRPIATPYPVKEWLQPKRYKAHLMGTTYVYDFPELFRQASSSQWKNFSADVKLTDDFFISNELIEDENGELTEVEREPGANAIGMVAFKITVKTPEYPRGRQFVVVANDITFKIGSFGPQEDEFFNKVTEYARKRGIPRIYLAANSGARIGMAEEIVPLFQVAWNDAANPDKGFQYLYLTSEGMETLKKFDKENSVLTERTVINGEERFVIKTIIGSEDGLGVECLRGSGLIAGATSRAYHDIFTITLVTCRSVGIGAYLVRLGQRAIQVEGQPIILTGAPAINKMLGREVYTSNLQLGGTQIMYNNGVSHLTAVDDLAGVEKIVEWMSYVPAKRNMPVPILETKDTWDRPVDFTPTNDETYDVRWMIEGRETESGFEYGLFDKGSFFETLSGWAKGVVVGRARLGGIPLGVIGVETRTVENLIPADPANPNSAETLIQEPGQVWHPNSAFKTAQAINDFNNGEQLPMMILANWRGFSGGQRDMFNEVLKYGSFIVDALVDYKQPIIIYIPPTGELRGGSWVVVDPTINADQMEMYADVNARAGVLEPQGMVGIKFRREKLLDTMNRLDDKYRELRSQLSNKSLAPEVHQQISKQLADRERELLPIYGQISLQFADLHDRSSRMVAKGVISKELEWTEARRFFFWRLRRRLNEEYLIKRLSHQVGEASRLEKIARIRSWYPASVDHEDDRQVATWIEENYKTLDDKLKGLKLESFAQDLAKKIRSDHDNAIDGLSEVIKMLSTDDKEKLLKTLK

With `Cc1c(-n2nccn2)sc2c1c(=O)n(C(C)(C)C(=O)N1CCCC1)c(=O)n2C[C@H](OC1CCOCC1)c1cc(F)ccc1OCCO` [Compound I-112], the MIC (in general, the least concentration at which growth counts as inhibited) in assay [1] (Table 3a) lay within 0.25 to 1 µg/mL (≈ 0.373 to 1.49 µM); in assay [1] (Table 3b (additional results)), 1.01 to 2 µg/mL (≈ 1.51 to 2.98 µM); in assay [3] (Table 3a), 0.25 to 1 µg/mL (≈ 0.373 to 1.49 µM); in assay [3] (Table 3b (additional results)), 0.25 to 1 µg/mL (≈ 0.373 to 1.49 µM); in assay [4] (Table 3a), 0.25 to 1 µg/mL (≈ 0.373 to 1.49 µM); in assay [4] (Table 3b (additional results)) it was 0.25 to 1 µg/mL (≈ 0.373 to 1.49 µM). Besides, the IC50 (usually the point on the concentration scale where inhibition reaches its midpoint) in assay [2] (Table 2a) lay within 0.4 to 1 nM; in assay [2] (Table 2b, additional results), 0.3 to 1 nM; in assay [5] (Table 2a), 1 to 5 nM; in assay [5] (Table 2b, additional results), 1 to 5 nM.
With `COc1ccc(F)cc1[C@H](Cn1c(=O)n(C(C)(C)C(=O)N2CCCC2)c(=O)c2c(C)c(-n3nccn3)sc21)OCC(O)C(F)(F)F` (stereo partly shown) [Compound I-113], the MIC was 1.1 to 2 µg/mL (≈ 1.65 to 2.99 µM) in assay [1] (Table 3a); 1.01 to 2 µg/mL (≈ 1.51 to 2.99 µM) in assay [1] (Table 3b (additional results)); 0.25 to 1 µg/mL (≈ 0.374 to 1.5 µM) in assay [3] (Table 3a); 2.01 to 4 µg/mL (≈ 3.01 to 5.98 µM) in assay [3] (Table 3b (additional results)); 0.25 to 1 µg/mL (≈ 0.374 to 1.5 µM) in assay [4] (Table 3a); more than 4.01 µg/mL in assay [4] (Table 3b (additional results)). Moreover, the IC50 in assay [2] (Table 2a) fell in the range of 1 to 5 nM; in assay [2] (Table 2b, additional results), 1 to 5 nM; in assay [5] (Table 2a) it was 1 to 5 nM; in assay [5] (Table 2b, additional results), 1 to 5 nM.
Turning to `C=CCN(C)C(=O)C(C)(C)n1c(=O)c2c(C)c(-n3nccn3)sc2n(C[C@H](OC(C)C)c2cc(F)ccc2OC)c1=O` [Compound I-115], the MIC in assay [1] (Table 3a) is 1.1 to 2 µg/mL (≈ 1.84 to 3.34 µM); in assay [1] (Table 3b (additional results)), more than 4.01 µg/mL; in assay [3] (Table 3a), 1.1 to 2 µg/mL (≈ 1.84 to 3.34 µM); in assay [3] (Table 3b (additional results)), 1.01 to 2 µg/mL (≈ 1.69 to 3.34 µM); in assay [4] (Table 3a), 2.1 to 4 µg/mL (≈ 3.51 to 6.68 µM); in assay [4] (Table 3b (additional results)) it was 1.01 to 2 µg/mL (≈ 1.69 to 3.34 µM). Further, the IC50 in assay [2] (Table 2a) fell in the range of 1 to 5 nM; in assay [2] (Table 2b, additional results), 1 to 5 nM; in assay [5] (Table 2a) it was 5 to 10 nM; in assay [5] (Table 2b, additional results), 5 to 10 nM.
For `Cc1c(-n2nccn2)sc2c1c(=O)n(C(C)(C)C(=O)NC(C)C)c(=O)n2C[C@H](OC1CCOCC1)c1cc(F)ccc1OCC#N` [Compound I-116], the MIC in assay [1] (Table 3a), in assay [1] (Table 3b (additional results)), in assay [3] (Table 3a), in assay [3] (Table 3b (additional results)), in assay [4] (Table 3a) and in assay [4] (Table 3b (additional results)) was 0.25 to 1 µg/mL (≈ 0.382 to 1.53 µM) in each case. In addition, the IC50 in assay [2] (Table 2a) lay in the range of 0.4 to 1 nM; in assay [2] (Table 2b, additional results) it was 0.3 to 1 nM; in assay [5] (Table 2a), 5 to 10 nM; in assay [5] (Table 2b, additional results), 5 to 10 nM.
Turning to `COc1ccc(F)cc1[C@H](Cn1c(=O)n(C(C)(C)C(=O)N2CC=CC2)c(=O)c2c(C)c(-n3nccn3)sc21)OC[C@H](C)O` [Compound I-117], the MIC is 2.1 to 4 µg/mL (≈ 3.43 to 6.53 µM) in assay [1] (Table 3a); 2.01 to 4 µg/mL (≈ 3.28 to 6.53 µM) in assay [1] (Table 3b (additional results)); 0.25 to 1 µg/mL (≈ 0.408 to 1.63 µM) in assay [3] (Table 3a); more than 4.01 µg/mL in assay [3] (Table 3b (additional results)); 2.1 to 4 µg/mL (≈ 3.43 to 6.53 µM) in assay [4] (Table 3a); 1.01 to 2 µg/mL (≈ 1.65 to 3.26 µM) in assay [4] (Table 3b (additional results)). Besides, the IC50 was in the range of 0.4 to 1 nM in assay [2] (Table 2a); 0.3 to 1 nM in assay [2] (Table 2b, additional results); 5 to 10 nM in assay [5] (Table 2a); 5 to 10 nM in assay [5] (Table 2b, additional results).
Consider `COc1ccc(F)cc1[C@H](Cn1c(=O)n(C(C)(C)C(=O)N2CCCC2)c(=O)c2c(C)c(-n3nccn3)sc21)OCCCO` [Compound I-118], for which the MIC in assay [1] (Table 3a) is 2.1 to 4 µg/mL (≈ 3.42 to 6.51 µM); in assay [1] (Table 3b (additional results)) it was 1.01 to 2 µg/mL (≈ 1.64 to 3.25 µM); in assay [3] (Table 3a) it was 0.25 to 1 µg/mL (≈ 0.407 to 1.63 µM); in assay [3] (Table 3b (additional results)) it was 1.01 to 2 µg/mL (≈ 1.64 to 3.25 µM); in assay [4] (Table 3a), 1.1 to 2 µg/mL (≈ 1.79 to 3.25 µM); in assay [4] (Table 3b (additional results)), 1.01 to 2 µg/mL (≈ 1.64 to 3.25 µM). The IC50 in assay [2] (Table 2a) lay in the range of 0.4 to 1 nM; in assay [2] (Table 2b, additional results), 0.3 to 1 nM; in assay [5] (Table 2a), 1 to 5 nM; in assay [5] (Table 2b, additional results), 1 to 5 nM.
In the case of `COc1ccc(F)cc1[C@H](Cn1c(=O)n(C(C)(C)C(=O)NC(C)C)c(=O)c2c(C)c(-n3nccn3)sc21)OCCCO` [Compound I-119], the MIC in assay [1] (Table 3a) lay in the range of 0.25 to 1 µg/mL (≈ 0.415 to 1.66 µM); in assay [1] (Table 3b (additional results)), 0.25 to 1 µg/mL (≈ 0.415 to 1.66 µM); in assay [3] (Table 3a), 0.06 to 0.24 µg/mL (≈ 0.0996 to 0.398 µM); in assay [3] (Table 3b (additional results)), 0.25 to 1 µg/mL (≈ 0.415 to 1.66 µM); in assay [4] (Table 3a) it was 0.25 to 1 µg/mL (≈ 0.415 to 1.66 µM); in assay [4] (Table 3b (additional results)), 0.25 to 1 µg/mL (≈ 0.415 to 1.66 µM). The IC50 in assay [2] (Table 2a) fell in the range of 0.4 to 1 nM; in assay [2] (Table 2b, additional results), 0.3 to 1 nM; in assay [5] (Table 2a), 1 to 5 nM; in assay [5] (Table 2b, additional results), 1 to 5 nM.
